Drawing on ChEMBL document CHEMBL1201862, “PubChem BioAssay data set” (2004), this text covers EC50, IC50 and AC50 for three compounds.

Calls of active or inactive are those of the source. A value given as a limit tells only on which side of the number the result lay.

For experiment [1], the target named is T1, Streptokinase A (Streptococcus pyogenes serotype M1, UniProt P10520).
T1 sequence (P10520 whole entry): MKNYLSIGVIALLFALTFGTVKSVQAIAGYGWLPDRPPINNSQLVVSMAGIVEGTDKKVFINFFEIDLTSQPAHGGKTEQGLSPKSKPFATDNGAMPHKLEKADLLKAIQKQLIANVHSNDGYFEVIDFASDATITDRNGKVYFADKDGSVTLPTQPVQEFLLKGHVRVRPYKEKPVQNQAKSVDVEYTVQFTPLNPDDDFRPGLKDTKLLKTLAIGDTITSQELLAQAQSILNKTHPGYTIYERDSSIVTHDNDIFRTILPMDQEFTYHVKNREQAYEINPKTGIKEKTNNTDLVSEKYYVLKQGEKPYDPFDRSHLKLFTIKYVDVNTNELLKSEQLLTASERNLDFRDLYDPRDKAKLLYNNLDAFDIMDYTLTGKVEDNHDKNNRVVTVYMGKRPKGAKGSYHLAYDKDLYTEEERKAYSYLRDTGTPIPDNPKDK
The experiment in a line: viability-normalized secreted streptokinase activity reduction – plasminogen activation absorbance, OD405, dose response (AID 1914).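 Note: secreted streptokinase activity via plasminogen activation per viability signal from cell pellet.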 The experiment is classed as functional, Streptococcus pyogenes M1 GAS.

The subject of experiment [2] is Streptococcus sp. 'group A'. The experiment can be described thus: Streptococcus pyogenes SK(-)GAS viability under kanamycin – luminescence, BacTiterGlo, confirmation, counter-screen for streptokinase expression inhibitor project, dose response (AID 1900). It counts as functional, organism-based.
A short description of experiment [3]: Luminescence Cell-Based Dose Response HTS to Identify Inhibitors of 5'UTR Stem-Loop Driven Prion Protein mRNA Translation in H4 Neuroglioblastoma Cells. [Related pubchem assays: 1827 (Project Summary), 1813 (Primary HTS)]. It counts as functional.
Experiment [4] is described as follows: luciferase reporter signal suppression in cells – H4 neuroglioma cells, luminescence, dose response (AID 1990). It counts as functional, cell-based.
The target in experiment [5] is T2, Ubiquitin-conjugating enzyme E2 N (Homo sapiens, UniProt P61088).
T2 sequence (P61088 whole entry): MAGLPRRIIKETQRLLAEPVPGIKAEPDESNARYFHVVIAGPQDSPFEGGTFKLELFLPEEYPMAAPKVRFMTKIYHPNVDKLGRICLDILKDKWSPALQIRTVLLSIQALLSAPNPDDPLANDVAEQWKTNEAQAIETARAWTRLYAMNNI
The experiment is classed as functional.

Experiment [6] concerns Cryptococcus neoformans. The experiment in a line: PubChem AID 686997. The experiment is classed as functional, organism-based.
The target of experiment [7] is T3, DNA repair and recombination protein RAD54-like (Homo sapiens, UniProt Q92698).
T3 sequence (Q92698 whole entry): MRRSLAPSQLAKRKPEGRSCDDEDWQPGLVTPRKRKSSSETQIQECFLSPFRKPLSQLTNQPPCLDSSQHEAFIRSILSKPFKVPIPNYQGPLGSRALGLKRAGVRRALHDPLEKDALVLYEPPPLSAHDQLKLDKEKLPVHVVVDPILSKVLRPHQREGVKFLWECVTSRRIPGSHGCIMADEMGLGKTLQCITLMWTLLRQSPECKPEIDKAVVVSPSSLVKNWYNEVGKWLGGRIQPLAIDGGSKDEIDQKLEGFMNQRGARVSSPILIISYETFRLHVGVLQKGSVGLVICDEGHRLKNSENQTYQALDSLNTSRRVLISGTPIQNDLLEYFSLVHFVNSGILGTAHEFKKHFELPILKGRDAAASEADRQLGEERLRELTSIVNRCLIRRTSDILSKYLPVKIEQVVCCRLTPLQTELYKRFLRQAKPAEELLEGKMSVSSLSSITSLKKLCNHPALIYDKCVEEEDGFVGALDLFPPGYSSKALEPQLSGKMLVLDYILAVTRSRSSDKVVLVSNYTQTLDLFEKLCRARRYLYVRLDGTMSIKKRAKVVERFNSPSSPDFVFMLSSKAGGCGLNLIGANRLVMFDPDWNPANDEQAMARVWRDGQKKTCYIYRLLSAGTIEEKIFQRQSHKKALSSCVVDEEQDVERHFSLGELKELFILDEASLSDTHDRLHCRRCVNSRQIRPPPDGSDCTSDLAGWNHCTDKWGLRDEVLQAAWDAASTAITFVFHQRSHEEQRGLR
The experiment can be described thus: RAD54 Holliday junction migration blockers – biochemical, fluorescence, cherry-picked samples, dose series, confirmation (AID 651657). It counts as functional.

Experiment [8] can be described thus: cytotoxicity toward MDA-MB-231 breast cancer cells – cell-based, CellTiter-Glo luminescence, cherry-pick, cytotoxicity control for RAD54 inhibitor project, dose response (AID 651692). It counts as functional.
The target in experiment [9] is Beta-galactosidase (Escherichia coli, UniProt Q8VNN2). The experiment can be described thus: PubChem AID 485352. It counts as functional.
Sequence of Beta-galactosidase (Q8VNN2 whole entry): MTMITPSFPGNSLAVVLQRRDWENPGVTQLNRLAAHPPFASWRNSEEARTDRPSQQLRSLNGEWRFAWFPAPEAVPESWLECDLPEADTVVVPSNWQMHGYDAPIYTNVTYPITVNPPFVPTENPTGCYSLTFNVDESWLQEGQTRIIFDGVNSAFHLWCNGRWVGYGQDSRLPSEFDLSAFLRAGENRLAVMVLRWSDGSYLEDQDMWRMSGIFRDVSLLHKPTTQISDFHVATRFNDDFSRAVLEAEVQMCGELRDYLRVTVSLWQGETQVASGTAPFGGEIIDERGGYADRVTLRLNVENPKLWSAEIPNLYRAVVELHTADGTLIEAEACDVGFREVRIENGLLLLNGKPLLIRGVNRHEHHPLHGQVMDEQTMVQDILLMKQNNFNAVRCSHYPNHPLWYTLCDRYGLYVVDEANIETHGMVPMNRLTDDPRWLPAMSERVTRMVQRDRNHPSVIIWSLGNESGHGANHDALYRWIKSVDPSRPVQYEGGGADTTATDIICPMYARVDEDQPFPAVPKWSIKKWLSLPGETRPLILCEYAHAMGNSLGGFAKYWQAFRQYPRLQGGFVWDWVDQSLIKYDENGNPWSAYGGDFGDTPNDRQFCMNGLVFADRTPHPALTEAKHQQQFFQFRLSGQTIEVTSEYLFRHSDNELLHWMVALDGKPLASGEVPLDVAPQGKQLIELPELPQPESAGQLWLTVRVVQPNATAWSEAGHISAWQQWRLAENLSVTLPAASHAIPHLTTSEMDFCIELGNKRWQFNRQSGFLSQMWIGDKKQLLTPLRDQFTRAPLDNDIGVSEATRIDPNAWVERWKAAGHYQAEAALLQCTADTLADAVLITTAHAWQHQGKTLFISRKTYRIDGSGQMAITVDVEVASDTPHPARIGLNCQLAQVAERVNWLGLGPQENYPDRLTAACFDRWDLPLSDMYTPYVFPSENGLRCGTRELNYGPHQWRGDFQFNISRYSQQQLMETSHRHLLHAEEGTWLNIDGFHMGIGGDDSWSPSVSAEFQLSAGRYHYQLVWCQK
For experiment [10], the target named is T4, Type-1 angiotensin II receptor (Homo sapiens, UniProt P30556).
T4 sequence (P30556 whole entry): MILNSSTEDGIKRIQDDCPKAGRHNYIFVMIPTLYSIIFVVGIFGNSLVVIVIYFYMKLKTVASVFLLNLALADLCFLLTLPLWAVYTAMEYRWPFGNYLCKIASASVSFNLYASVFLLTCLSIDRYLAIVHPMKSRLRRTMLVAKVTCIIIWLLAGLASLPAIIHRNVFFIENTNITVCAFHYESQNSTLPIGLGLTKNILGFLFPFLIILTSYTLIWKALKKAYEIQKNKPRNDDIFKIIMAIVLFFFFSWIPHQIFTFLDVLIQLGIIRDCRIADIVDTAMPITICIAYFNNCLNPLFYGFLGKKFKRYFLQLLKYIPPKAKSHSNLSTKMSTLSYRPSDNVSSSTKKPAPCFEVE
The experiment in a line: antagonism of angiotensin II type 1 receptor – cell-based, uHTS hits, selectivity assay for APJ receptor antagonist project, dose response (AID 463214).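 Note: antagonist potency against angiotensin II stimulated AT1 response.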 It counts as functional.

The target in experiment [11] is Tyrosyl-DNA phosphodiesterase 2 (Homo sapiens, UniProt O95551). The experiment in a line: potency against TDP2 phosphodiesterase activity – biochemical, epi absorbance, IC50, dose response (AID 743297).
Sequence of Tyrosyl-DNA phosphodiesterase 2 (O95551 whole entry): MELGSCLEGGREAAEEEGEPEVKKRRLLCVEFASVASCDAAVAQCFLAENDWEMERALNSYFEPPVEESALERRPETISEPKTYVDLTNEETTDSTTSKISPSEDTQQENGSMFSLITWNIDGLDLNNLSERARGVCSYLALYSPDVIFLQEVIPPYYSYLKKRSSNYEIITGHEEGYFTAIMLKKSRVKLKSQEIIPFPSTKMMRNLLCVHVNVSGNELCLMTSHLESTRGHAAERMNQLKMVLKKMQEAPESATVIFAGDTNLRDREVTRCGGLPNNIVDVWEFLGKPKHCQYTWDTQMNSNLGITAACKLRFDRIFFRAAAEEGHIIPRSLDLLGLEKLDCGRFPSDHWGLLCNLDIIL
The target of experiment [12] is T5, Dual specificity protein phosphatase 6 (Rattus norvegicus, UniProt Q64346).
T5 sequence (Q64346 whole entry): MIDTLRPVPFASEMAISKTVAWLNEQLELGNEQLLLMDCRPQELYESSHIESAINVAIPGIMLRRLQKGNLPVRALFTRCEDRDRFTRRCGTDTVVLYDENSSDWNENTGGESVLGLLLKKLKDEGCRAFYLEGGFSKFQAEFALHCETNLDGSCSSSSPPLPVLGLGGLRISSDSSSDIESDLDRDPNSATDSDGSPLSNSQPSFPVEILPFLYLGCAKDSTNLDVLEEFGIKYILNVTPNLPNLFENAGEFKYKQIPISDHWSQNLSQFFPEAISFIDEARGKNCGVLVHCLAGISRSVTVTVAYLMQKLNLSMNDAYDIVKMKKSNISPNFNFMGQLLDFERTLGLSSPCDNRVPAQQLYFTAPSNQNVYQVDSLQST
The experiment can be described thus: inhibition of rat DUSP6 enzyme activity – biochemical, in vitro, primary screen (AID 425).

In the case of `CCCCCCCCCCOC(=O)Cn1c(COc2ccccc2)[n+](C)c2ccccc21`, the results for the EC50 in experiment [1] and in experiment [2] were > 150 µM (not active) and 6.91 µM (active), respectively.

Regarding `CCOC(=O)c1c(-c2ccc(-c3ccccc3)cc2)csc1NC(=O)CNCCN(C)C`, the EC50 was 13.7 µM (active) in experiment [3], > 120 µM (not active) in experiment [4] and > 40 µM (inactive) in experiment [9]. Also, the results for the IC50 in experiment [5] and in [10] were 10.1 µM (active) and 9.33 µM (active), respectively. Moreover, the AC50 in experiment [6] is 20.9 µM (active); in experiment [7] it was 68 µM (active); in [8] it was 18.4 µM (active).

For the compound `N#Cc1c(NC(=O)c2ccc(Br)o2)n(-c2ccccc2)c2nc3ccccc3nc12`, the IC50 in [11] was 29.1 µM (inactive); in experiment [12], 96.9 µM (active).
